We go through 16 molecules from patent US20020115688A1, “Screen for glutamate reuptake inhibitors, stimulators, and modulators” (priority 2000, published 2002).

Read-outs that look alike come from different tables or passages of the source.

Data set [1] has as its system glutamate transporters (GLAST and GLT1). Briefly: [3H]-4MG binding to rat brain membrane homogenates. The conditions noted are these: FIG. 5. On the procedure:
(§1) Rat brain tissue, either freshly dissected or stored frozed at −20° C. is homogenized in HEPES buffer containing Na^+(5 mM HEPES, 96 mM NaCl, 1.8 mM CaCl2, 1 mM MgCl2 (pH 7.5 at 25° C.)), and membranes are washed twice in the same buffer using standard methods for subcellular fractionation and the preparation of brain membranes. Brain tissue is weighed and homogenized in 15 ml of assay buffer using a Polytron tissue homogenizer (setting 4, 10-15 seconds). […] The homogenate is centrifuged again (as above) and the pellet re-suspended in 20 to 25 volumes of buffer. Membrane homogenates make up 20% of final assay volume. Binding assays are also performed in the above buffer.
(§2) The range of concentrations of the receptor compound (for example, 10 nM-1 mM) is varied dependent on whether all or only a trace of the receptor compound is labeled. Following incubation of the receptor compounds (bound to the transporters) in the presence or absence of test compounds, binding is terminated by rapid filtration through Whatman GF/B filter discs and washing 3 times with buffer using a Brandel cell harvester. Binding is determined by any technique suitable for the label used. For isotope labels, scintillation spectrometry is preferred.
(§3) Forebrain tissue from female Sprague Dawley rats was homogenised in HEPES buffer containing Na^+, and membranes were washed twice in the same buffer. Binding experiments were also performed in this buffer. […] Binding was determined by scintillation spectrometry. A full range of association, dissociation, saturation and inhibition studies was performed over varying incubation times (up to 60 min). Data were analyzed using computer-assisted curve fitting. Values are expressed as mean of at least triplicate determinations and multiple experiments.
(§4) A full range of association, dissociation, saturation and inhibition studies was performed over varying incubation times (up to 60 min). Data were analyzed using computer-assisted curve fitting. Values cited are expressed as mean of at least triplicate determinations and multiple experiments.

In data set [2] the test system is T1, glutamate transporters (GLAST and GLT1).
T1 construct: Bmax; other: rat brain membrane homogenates; other: 20 nM [3H]-4MG, 15 minutes at 4° C; KD; association t½
In words: [3H]-4MG binding to rat brain membrane homogenates. The conditions noted are these: for displacement of 4MG binding: at or above 100 μM, FIG. 5; for IC50: read-out: IC50 for displacement of [3H]-4MG binding. The procedure: as §1, §2, §3, §4
(Loss of bound radioactivity is the signal in a displacement assay; it reports binding, not function.)

The target of another data set is T2, GLAST (Rattus norvegicus, UniProt P24942).
T2 sequence (P24942 1-543): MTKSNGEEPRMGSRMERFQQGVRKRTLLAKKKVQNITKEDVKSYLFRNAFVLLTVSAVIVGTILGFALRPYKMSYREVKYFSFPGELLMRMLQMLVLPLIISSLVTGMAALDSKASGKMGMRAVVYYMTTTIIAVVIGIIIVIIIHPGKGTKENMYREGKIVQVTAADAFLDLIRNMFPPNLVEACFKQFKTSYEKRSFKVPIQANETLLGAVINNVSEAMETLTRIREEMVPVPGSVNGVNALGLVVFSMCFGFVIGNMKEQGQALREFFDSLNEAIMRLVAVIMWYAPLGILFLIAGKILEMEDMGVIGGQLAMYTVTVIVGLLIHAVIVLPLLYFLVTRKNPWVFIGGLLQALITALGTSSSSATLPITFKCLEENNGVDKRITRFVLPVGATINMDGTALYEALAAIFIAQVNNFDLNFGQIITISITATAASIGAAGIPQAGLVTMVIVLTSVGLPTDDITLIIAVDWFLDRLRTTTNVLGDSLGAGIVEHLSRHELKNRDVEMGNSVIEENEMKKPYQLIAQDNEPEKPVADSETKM
The conditions noted are these: at concentrations below 1 mM; cited from earlier work.

Data set [3] can be described thus: Hydrolysis of prodrug to the acid form. Type of data set: in vitro ADME. The following applies: prodrug ester cleavage. The source says: The ester, carbonate, and amine bond in any prodrug forms of compounds identified by the disclosed method can be readily cleaved in vivo. Therefore, prodrug compositions can be hydrolyzed to the corresponding acids form in plasma.

Where [4] appears, read: 20 nM [3H]-4MG, 15 minutes at 4° C., FIG. 3, FIG. 4.

`NCC(=O)O` [GLY, glycine]: the “effect on 4MG and/or D-aspartate binding to GluTs” value in data set [1] was “failed to affect”. On the same count and under the same terms, the value for `CC(C)(C)c1o[nH]c(=O)c1CC(N)C(=O)O` (stereo not shown) [ATPA] was “failed to affect”.

For the molecule `NCCCC(=O)O` [GABA, γ-aminobutyric acid], the “effect on 4MG and/or D-aspartate binding to GluTs” value in data set [1] is “failed to affect”. Still for that read-out and setting: as for `N[C@@H](Cn1cc(I)c(=O)[nH]c1=O)C(=O)O` [IW, iodowillardine], the entry is “failed to affect”. On to `Cc1onc(O)c1CC(N)C(=O)O` (stereo not drawn) [AMPA, α-amino-3-hydroxy-5-methyl-4-isoxazolepropionate], for which the “displacement of 4MG binding” value in data set [2] is reported as “failed to significantly displace”. What is called IC50 is the point on the concentration scale where inhibition reaches its midpoint. Turning to `N[C@@H](COS(=O)(=O)O)C(=O)O` [SOS, L-serine-O-sulphate], the IC50 in data set [2] is 40 µM.

Take `CC(CC(=O)O)C(N)C(=O)O` (racemic) [3MG, (±)-threo-3-methylglutamate]: at GLAST, the “binding to GLAST” value is “do not bind”.

Turning to `O=C(O)[C@H]1CN[C@H](C(=O)O)C1` [PDC, L-trans-pyrrolidine-2,4-dicarboxylate], the IC50 in data set [2] (setting [4]) turned out to be 2.9 µM. Regarding `CN[C@H](CC(=O)O)C(=O)O` [NMDA, N-methyl-D-aspartate], the “displacement of 4MG binding” value in data set [2] was “failed to significantly displace”. `N[C@@H](CC(=O)O)C(=O)O` [L-aspartate]: the IC50 in data set [2] (setting [4]) amounted to 7.5 µM. Turning to `CC(C)[C@H]1CN[C@H](C(=O)O)[C@H]1CC(=O)O` [DHK, L-Dihydrokainate], the “binding to GLAST” value on GLAST is reported as “do not bind”. For the molecule `N[C@@H](Cn1cc(F)c(=O)[nH]c1=O)C(=O)O` [FW, fluorowillardiine], in data set [2], the “displacement of 4MG binding” value is reported as “failed to significantly displace”. As for `COC(=O)[C@H](C)C[C@H](N)C(=O)OC` [compound 2, (2S,4R)-4-methyl glutamic acid dimethyl ester], in data set [3], the “hydrolysis to (2S,4R)-4-methyl glutamic acid (1)” value was “readily hydrolyzed”. `C=C(C)[C@H]1CN[C@H](C(=O)O)[C@H]1CC(=O)O` [KA, kainate]: at GLAST, the “binding to GLAST” value was “do not bind”. The term Kd denotes the equilibrium constant for the complex coming apart. A higher Kd goes with weaker binding. Take `C[C@H](C[C@H](N)C(=O)O)C(=O)O` [4MG, (2S,4R)-4-methyl glutamic acid]: in data set [2] (rat brain membrane homogenates, FIG. 1), the Kd was determined as 5.4 µM. With `N[C@H](C(=O)O)[C@H]1C[C@H]1C(=O)O` [CCG-III, (2S,3S,4R)-2-(carboxycyclopropyl)glycine], the IC50 in data set [2] (setting [4]) was found to be 1.2 µM.
